Data from paper PMC3578762, “Mutational Analysis of the High-Affinity Zinc Binding Site Validates a Refined Human Dopamine Transporter Homology Model” (PLoS Computational Biology, 2013).
Values joined by “and” are separate entries in the source; they are usually repeats but may differ in a detail not shown here. Identical values can stand only once. Like-named read-outs stand apart in the source and are kept apart here.

Key:
DAT (wild-type) = target: T1, DAT (wild-type) (Homo sapiens, UniProt Q01959); experiment: Zinc inhibition of [3H]MPP+ uptake in HEK293 cells transiently expressing wild-type DAT; type: cell-based; conditions: for IC50: [3H]MPP+ uptake inhibition, HEK293 cells, bi-phasic fit, mean ± S.E.
T1 construct: expressed in transfected cells; host or cells: HEK293 (transient, calcium phosphate)
Method: (§1) HEK293 cells were cultured in Dulbecco's modified Eagle's medium (DMEM) with high glucose (4.5 g/liter) and L-glutamine (584 mg/liter), supplemented with 10% fetal calf serum (FCS), 100 units/ml penicillin and 100 µg/ml streptomycin. The cells were maintained at 37°C in a humidified atmosphere of 5% CO2/95% air on standard plastic culture ware. The cells were transiently transfected with 2–10 µg of plasmid DNA as required, using the calcium phosphate precipitation method.
(§2) Cells were seeded at 0.5×10^5 cells/ml into poly-D-lysine coated 48 well plates twenty-four hours after calcium phosphate transfection with either wild-type or mutant DAT. Uptakes were performed as described previously. In brief, the cell medium was aspirated and the cells were washed once with Krebs-HEPES buffer at room temperature. The washed cells were pre-incubated with Krebs-HEPES buffer in the presence of 0–10 mM ZnCl2 for 5 min at room temperature. In the first step of the assay, this buffer was replaced with Krebs-Hepes buffer containing the appropriate ZnCl2 concentration and 0.02 µM [^3H]MPP^+. After three minutes substrate uptake was stopped by exchange of the substrate containing buffer with ice-cold Krebs-Hepes buffer. The cells were lysed in 1% SDS and transferred to scintillation vials. Scintillation cocktail was added and the vials were assayed for [^3H] content by liquid scintillation counting. Non-specific uptake was determined in the presence of 10 µM mazindol.
(§3) Uptake data are given by mean values ± S.E, obtained from n = 6–8 experiments. Total uptake data were corrected for non-specific uptake and expressed as a percentage of 0 mM ZnCl2 for each experiment. IC50 values were calculated for each mutant by performing non-linear regression analysis using PRISM version 4.0 (GraphPad Software, Inc., San Diego, CA).

DAT (D206E) = target: T2, DAT (D206E) (Homo sapiens, UniProt Q01959, D206E); experiment: Zinc inhibition of [3H]MPP+ uptake in HEK293 cells transiently expressing DAT-D206E; type: cell-based; conditions: [3H]MPP+ uptake inhibition, mean ± S.E.
T2 construct: expressed in transfected cells; host or cells: HEK293 (transient, calcium phosphate)
Method: (§4) Wild-type human DAT was generously donated by Marc G. Caron; DAT H193K was a generous gift from Ulrik Gether. Wild-type and mutant DAT were YFP tagged at their N-terminus as described in Egana et al.. Mutagenesis was performed using the Quickchange Lightning Kit by Agilent Technologies. Primers were designed using the “quickchange primer design tool” by Agilent. Primers used were: D206K: (5′-3′): […]; D206C: (5′-3′): […].
as §1, with “The cells were transiently transfected with 2–10 µg of plasmid DNA as required, using the calcium phosphate precipitation method.” left out
(§5) Cells were seeded at 0.5×10^5 cells/ml into poly-D-lysine coated 48 well plates twenty-four hours after calcium phosphate transfection with either wild-type or mutant DAT. […] Non-specific uptake was determined in the presence of 10 µM mazindol.
as §3

DAT (H193K) = target: T3, DAT (H193K) (Homo sapiens, UniProt Q01959, H193K); experiment: Zinc inhibition of [3H]MPP+ uptake in HEK293 cells transiently expressing DAT-H193K; type: cell-based; conditions: [3H]MPP+ uptake inhibition, homogeneous (mono-phasic) inhibition curve, mean ± S.E., read-out: Low-affinity site: IC50 (Zn^2+)
T3 construct: expressed in transfected cells; host or cells: HEK293 (transient, calcium phosphate)
Method: as §4
as §1, with “The cells were transiently transfected with 2–10 µg of plasmid DNA as required, using the calcium phosphate precipitation method.” left out
as §5, §3

DAT (D206A) = target: T4, DAT (D206A) (Homo sapiens, UniProt Q01959, D206A); experiment: Zinc inhibition of [3H]MPP+ uptake in HEK293 cells transiently expressing DAT-D206A; type: cell-based; conditions: [3H]MPP+ uptake inhibition, mean ± S.E.
T4 construct: expressed in transfected cells; host or cells: HEK293 (transient, calcium phosphate)
Method: as §4
as §1, with “The cells were transiently transfected with 2–10 µg of plasmid DNA as required, using the calcium phosphate precipitation method.” left out
as §5, §3

DAT = tested on: DAT; parameters: method as in PMID 9687495, PMID 8423763; conditions: synaptosomes and heterologous expression systems; cited from earlier work
DAT (D206C) = target: T5, DAT (D206C) (Homo sapiens, UniProt Q01959, D206C); experiment: Zinc inhibition of [3H]MPP+ uptake in HEK293 cells transiently expressing DAT-D206C; type: cell-based
T5 construct: expressed in transfected cells; host or cells: HEK293 (transient, calcium phosphate)
Method: as §4, §1
as §2, with “The cells were lysed in 1% SDS and transferred to scintillation vials. Scintillation cocktail was added and the vials were assayed for [^3H] content by liquid scintillation counting.” left out
as §3

DAT (D206K) = target: T6, DAT (D206K) (Homo sapiens, UniProt Q01959, D206K); experiment: Zinc inhibition of [3H]MPP+ uptake in HEK293 cells transiently expressing DAT-D206K; type: cell-based; conditions: for IC50: [3H]MPP+ uptake inhibition, HEK293 cells, DAT D206K, mean ± S.E.
T6 construct: expressed in transfected cells; host or cells: HEK293 (transient, calcium phosphate)
Method: as §4, §1
as §2, with “The cells were lysed in 1% SDS and transferred to scintillation vials. Scintillation cocktail was added and the vials were assayed for [^3H] content by liquid scintillation counting.” left out
as §3

[1] = read-out: High-affinity site: IC50 (Zn^2+)
[2] = read-out: Low-affinity site: IC50 (Zn^2+)

T1 sequence (Q01959 whole entry): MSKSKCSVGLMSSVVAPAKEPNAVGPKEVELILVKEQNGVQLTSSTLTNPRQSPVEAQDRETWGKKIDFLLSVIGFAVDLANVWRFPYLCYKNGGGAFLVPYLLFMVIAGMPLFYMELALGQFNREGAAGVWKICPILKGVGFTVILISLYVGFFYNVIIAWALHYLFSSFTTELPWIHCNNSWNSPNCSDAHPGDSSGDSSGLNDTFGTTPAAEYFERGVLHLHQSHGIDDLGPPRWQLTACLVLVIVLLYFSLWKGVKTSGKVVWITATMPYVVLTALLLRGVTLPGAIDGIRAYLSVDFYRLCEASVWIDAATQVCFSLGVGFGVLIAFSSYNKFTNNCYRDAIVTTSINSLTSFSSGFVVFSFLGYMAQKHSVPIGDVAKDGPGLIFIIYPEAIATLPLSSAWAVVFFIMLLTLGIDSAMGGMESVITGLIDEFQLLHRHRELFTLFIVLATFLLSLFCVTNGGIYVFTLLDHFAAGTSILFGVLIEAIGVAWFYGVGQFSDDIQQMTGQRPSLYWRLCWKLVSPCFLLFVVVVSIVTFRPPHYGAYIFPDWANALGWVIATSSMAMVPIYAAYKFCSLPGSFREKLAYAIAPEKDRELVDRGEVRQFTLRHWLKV
T6 sequence (Q01959 whole entry D206K): as the sequence (Q01959 whole entry) above, with D206K counted along it
T5 sequence (Q01959 whole entry D206C): as the sequence (Q01959 whole entry) above, with D206C counted along it
T2 sequence (Q01959 whole entry D206E): as the sequence (Q01959 whole entry) above, with D206E counted along it
T4 sequence (Q01959 whole entry D206A): as the sequence (Q01959 whole entry) above, with D206A counted along it
T3 sequence (Q01959 whole entry H193K): as the sequence (Q01959 whole entry) above, with H193K counted along it

[Zn+2] [zinc]
IC50 (DAT (wild-type); [1]): 1000 nM and 910 nM | IC50 (DAT (wild-type); [2]): 798000 ± 84000 nM | Reduction of the transport rate of DAT upon zinc binding (DAT (wild-type); zinc bound to high-affinity site): ~50% | IC50 (DAT (D206E); [1]): 1.22 ± 0.3 µM | IC50 (DAT (D206E); [2]): 857 ± 76 µM | IC50 (DAT (H193K)): 102 ± 8 µM | IC50 (DAT (D206A); [1]): 0.79 ± 0.1 µM | IC50 (DAT (D206A); [2]): 219 ± 14 µM | IC50 of inhibition of dopamine re-uptake (DAT): low µM range | Inhibition of transport upon saturation of the high affinity site (DAT (D206C); DAT-D206C, [3H]MPP+ uptake, HEK293 cells): almost complete inhibition of transport | Occupancy of the high affinity site predicted (DAT (D206C); DAT-D206C, at 250 µM zinc): 99% | IC50 (DAT (D206C); [3H]MPP+ uptake inhibition, HEK293 cells, DAT D206C, mean ± S.E., read-out: High-affinity site: IC50 (Zn^2+)): 6.81 ± 1.4 µM | Reduction of inhibitory potency of zinc on the high-affinity component versus wild-type (DAT (D206K); DAT-D206K versus wild-type DAT): approximately three fold | IC50 (DAT (D206K); [1]): 2.54 ± 0.8 µM | IC50 (DAT (D206K); [2]): 682 ± 100 µM
